Data as given in patent US11524966B1 (Valo Early Discovery, Inc., priority 2017, dated 2022).

Molecular target: T1, USP25 (USP25-His6, Boston Biochem E-546) (Homo sapiens, UniProt Q9UHP3)
T1 construct: His6; purchased Boston Biochem E-546
T1 sequence (Q9UHP3 1-1055): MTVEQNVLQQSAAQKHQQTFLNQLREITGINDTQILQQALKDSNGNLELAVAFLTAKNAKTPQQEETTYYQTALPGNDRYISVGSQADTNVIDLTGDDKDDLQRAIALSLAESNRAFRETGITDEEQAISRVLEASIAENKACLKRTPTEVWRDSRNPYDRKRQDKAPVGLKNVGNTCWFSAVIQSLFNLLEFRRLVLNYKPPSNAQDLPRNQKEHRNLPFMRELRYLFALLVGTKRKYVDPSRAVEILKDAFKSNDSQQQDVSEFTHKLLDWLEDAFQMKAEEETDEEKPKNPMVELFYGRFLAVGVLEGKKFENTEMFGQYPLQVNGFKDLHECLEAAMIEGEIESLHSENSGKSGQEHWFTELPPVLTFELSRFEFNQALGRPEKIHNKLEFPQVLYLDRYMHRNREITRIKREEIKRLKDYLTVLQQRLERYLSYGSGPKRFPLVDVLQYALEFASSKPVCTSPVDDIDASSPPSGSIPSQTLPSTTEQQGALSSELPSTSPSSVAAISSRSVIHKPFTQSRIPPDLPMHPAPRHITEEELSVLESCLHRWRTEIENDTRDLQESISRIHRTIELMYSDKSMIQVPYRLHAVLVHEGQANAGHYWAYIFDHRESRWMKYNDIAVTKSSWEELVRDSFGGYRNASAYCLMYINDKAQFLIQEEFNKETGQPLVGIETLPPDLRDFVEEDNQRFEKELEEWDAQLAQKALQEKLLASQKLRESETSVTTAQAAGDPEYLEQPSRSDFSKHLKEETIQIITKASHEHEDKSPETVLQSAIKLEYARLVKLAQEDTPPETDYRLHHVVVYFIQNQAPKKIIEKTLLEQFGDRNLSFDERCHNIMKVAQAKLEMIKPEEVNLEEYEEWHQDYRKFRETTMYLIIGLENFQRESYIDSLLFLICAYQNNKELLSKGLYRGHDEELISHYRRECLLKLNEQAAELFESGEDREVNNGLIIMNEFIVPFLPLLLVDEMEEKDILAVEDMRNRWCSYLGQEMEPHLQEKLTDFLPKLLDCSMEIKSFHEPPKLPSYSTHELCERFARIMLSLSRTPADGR
Experiment: Ubiquitin-Rhodamine 110 Assay for USP25 Activity, Example A-2
Type: biochemical
Settings: Ubiquitin-Rhodamine 110 assay, Example A-2; read-out: USP25 A-2 IC50 range
Summary of the method: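 Fluorescence (ex 485, em 535 nm) of cleaved ubiquitin-rhodamine 110 (25 nM, below Km) gave IC50 via 4-parameter logistic fit. Reaction: 45 min, room temperature, citric acid stop, after 30 min compound preincubation with 75 pM USP25-His6 in 20 mM Tris pH 8.0, 3 mM BME, 0.03% BGG, 0.01% Triton X-100; top dose 25 μM.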

CO[C@H]1CN(c2ccc3c(c2)OC[C@H](NC(=O)c2sc4nc(C)cnc4c2N)C3)C[C@@H]1N [Example 117, 7-amino-N-[(3R)-7-[(3S,4S)-3-amino-4-methoxypyrrolidin-1-yl]-3,4-dihydro-2H-1-benzopyran-3-yl]-3-methylthieno[2,3-b]pyrazine-6-carboxamide] and CO[C@@H]1CN(c2ccc3c(c2)OC[C@H](NC(=O)c2sc4nc(C)ccc4c2N)C3)C[C@@H]1N [Example 121, 3-amino-N-[(3R)-7-[(3S,4R)-3-amino-4-methoxypyrrolidin-1-yl]-3,4-dihydro-2H-1-benzopyran-3-yl]-6-methylthieno[2,3-b]pyridine-2-carboxamide] fall in the same range of IC50: 200 to 2000 nM for the first, 200 to 2000 nM for the second.

Compared with CO[C@H]1CN(c2ccc3c(c2)OC[C@H](NC(=O)c2sc4nc(C)sc4c2N)C3)C[C@@H]1N [Example 118, 6-amino-N-[(3R)-7-[(3S,4S)-3-amino-4-methoxypyrrolidin-1-yl]-3,4-dihydro-2H-1-benzopyran-3-yl]-2-methylthieno[2,3-d][1,3]thiazole-5-carboxamide], CO[C@H]1CN(c2ccc3c(c2)CC[C@H](NC(=O)c2sc4nc(C)sc4c2N)C3)C[C@@H]1N [Example 133, 6-amino-N-[(2S)-6-[(3S,4S)-3-amino-4-methoxypyrrolidin-1-yl]-1,2,3,4-tetrahydronaphthalen-2-yl]-2-methylthieno[2,3-d][1,3]thiazole-5-carboxamide] is higher in IC50: 200 to 2000 nM for the first, greater than 2000 nM for the second. The first is the more potent here.

CO[C@H]1CCN(c2ccc3c(c2)OC[C@H](NC(=O)c2sc4nc(C)ccc4c2N)C3)C[C@@H]1N [Example 119, 3-amino-N-[(3R)-7-[(3S,4S)-3-amino-4-methoxypiperidin-1-yl}-3,4-dihydro-2H-1-benzopyran-3-yl]-6-methylthieno[2,3-b]pyridine-2-carboxamide] and CO[C@@H]1CCN(c2ccc3c(c2)OC[C@H](NC(=O)c2sc4nc(C)ccc4c2N)C3)C[C@H]1N [Example 120, 3-amino-N-[(3R)-7-[(3R,4R)-3-amino-4-methoxypiperidin-1-yl]-3,4-dihydro-2H-1-benzopyran-3-yl]-6-methylthieno[2,3-b]pyridine-2-carboxamide] fall in the same range of IC50: 200 to 2000 nM for the first, 200 to 2000 nM for the second.

CO[C@H]1CN(c2ccc3c(c2)OC[C@H](NC(=O)c2sc4nc(C)ccc4c2N)C3)C[C@H]1N [Example 122, 3-amino-N-[(3R)-7-[(3R,4S)-3-amino-4-methoxypyrrolidin-1-yl]-3,4-dihydro-2H-1-benzopyran-3-yl]-6-methylthieno[2,3-b]pyridine-2-carboxamide] and CO[C@H]1CN(c2ccc3c(c2)OC[C@H](NC(=O)c2sc4nc(C)ccc4c2N)C3)CC[C@@H]1N [Example 128, 3-amino-N-[(3R)-7-[(3S,4S)-4-amino-3-methoxypiperidin-1-yl]-3,4-dihydro-2H-1-benzopyran-3-yl]-6-methylthieno[2,3-b]pyridine-2-carboxamide] fall in the same range of IC50: 200 to 2000 nM for the first, 200 to 2000 nM for the second.

Cc1ccc2c(N)c(C(=O)N[C@H]3COc4cc([C@H]5C[C@@H](N)C5)ccc4C3)sc2n1 [Example 123, 3-amino-6-methyl-N-[(3R)-7-[(1s,3S)-3-aminocyclobutyl]-3,4-dihydro-2H-1-benzopyran-3-yl]thieno[2,3-b]pyridine-2-carboxamide] and Cc1ccc2c(N)c(C(=O)N[C@H]3COc4cc([C@H]5C[C@H](N)C5)ccc4C3)sc2n1 [Example 124, 3-amino-6-methyl-N-[(3R)-7-[(1r,3r)-3-aminocyclobutyl]-3,4-dihydro-2H-1-benzopyran-3-yl]thieno[2,3-b]pyridine-2-carboxamide] fall in the same range of IC50: 200 to 2000 nM for the first, 200 to 2000 nM for the second.

First: Cc1ccc2c(N)c(C(=O)N[C@H]3COc4cc(C5CC6COCC(C5)N6)ccc4C3)sc2n1 (stereo partly drawn) [Example 125, 3-amino-6-methyl-N-[(3R)-7-{3-oxa-9-azabicyclo[3.3.1]nonan-7-yl}-3,4-dihydro-2H-1-benzopyran-3-yl]thieno[2,3-b]pyridine-2-carboxamide]
Second: CO[C@@H]1CN(c2ccc3c(c2)OC[C@H](NC(=O)c2sc4nc(C)ccc4c2N)C3)CC[C@H]1N [Example 129, 3-amino-N-[(3R)-7-[(3R,4R)-4-amino-3-methoxypiperidin-1-yl]-3,4-dihydro-2H-1-benzopyran-3-yl]-6-methylthieno[2,3-b]pyridine-2-carboxamide]
The IC50 of the first is lower: 50 to 200 nM for the first, 200 to 2000 nM for the second.

First: Cc1ccc2c(N)c(C(=O)N[C@H]3COc4cc(N5CC6CCC(C5)N6)c(C#N)c(F)c4C3)sc2n1 [Example 126, 3-amino-N-[(3R)-6-cyano-7-{3,8-diazabicyclo[3.2.1]octan-3-yl}-5-fluoro-3,4-dihydro-2H-1-benzopyran-3-yl]-6-methylthieno[2,3-b]pyridine-2-carboxamide]
Second: Cc1ccc2c(N)c(C(=O)N[C@H]3COc4cc(N5CC6CNCC(C5)O6)c(C#N)c(F)c4C3)sc2n1 [Example 127, 3-amino-N-[(3R)-6-cyano-5-fluoro-7-{9-oxa-3,7-diazabicyclo[3.3.1]nonan-3-yl}-3,4-dihydro-2H-1-benzopyran-3-yl]-6-methylthieno[2,3-b]pyridine-2-carboxamide]
The IC50 of the first is lower: 1 to 50 nM for the first, 50 to 200 nM for the second. The first is the more potent here.

Compared with CO[C@H]1CN(c2ccc3c(c2)CC[C@H](NC(=O)c2sc4nc(C)cnc4c2N)C3)C[C@@H]1N [Example 130, 7-amino-N-[(2S)-6-[(3S,4S)-3-amino-4-methoxypyrrolidin-1-yl]-1,2,3,4-tetrahydronaphthalen-2-yl]-3-methylthieno[2,3-b]pyrazine-6-carboxamide], COc1ccc2c(N)c(C(=O)N[C@H]3CCc4cc(N5C[C@H](OC)[C@@H](N)C5)ccc4C3)sc2n1 [Example 134, 3-amino-N-[(2S)-6-[(3S,4S)-3-amino-4-methoxypyrrolidin-1-yl]-1,2,3,4-tetrahydronaphthalen-2-yl]-6-methoxythieno[2,3-b]pyridine-2-carboxamide] is higher in IC50: 200 to 2000 nM for the first, greater than 2000 nM for the second. The first is the more potent here.

CCn1ccc2cc(C(=O)N[C@H]3CCc4cc(N5C[C@H](OC)[C@@H](N)C5)ccc4C3)nnc21 [Example 131, N-[(2S)-6-[(3S,4S)-3-amino-4-methoxypyrrolidin-1-yl]-1,2,3,4-tetrahydronaphthalen-2-yl]-7-ethyl-7H-pyrrolo[2,3-c]pyridazine-3-carboxamide] and CCn1ccc2cc(C(=O)N[C@H]3CCc4cc(N5C[C@H](OC)[C@@H](N)C5)ccc4C3)cnc21 [Example 132, N-[(2S)-6-[(3S,4S)-3-amino-4-methoxypyrrolidin-1-yl]-1,2,3,4-tetrahydronaphthalen-2-yl]-1-ethyl-1H-pyrrolo[2,3-b]pyridine-5-carboxamide] cannot be ordered by IC50: greater than 2000 nM for the first, greater than 2000 nM for the second.

COc1nc2sc(C(=O)N[C@H]3CCc4cc(N5C[C@H](OC)[C@@H](N)C5)ccc4C3)c(N)c2cc1F [Example 135, 3-amino-N-[(2S)-6-[(3S,4S)-3-amino-4-methoxypyrrolidin-1-yl]-1,2,3,4-tetrahydronaphthalen-2-yl]-5-fluoro-6-methoxythieno[2,3-b]pyridine-2-carboxamide] and CO[C@H]1CN(c2cc(F)c3c(c2)CC[C@H](NC(=O)c2sc4nc(C)ccc4c2N)C3)C[C@@H]1N [Example 136, 3-amino-N-[(2S)-6-[(3S,4S)-3-amino-4-methoxypyrrolidin-1-yl]-8-fluoro-1,2,3,4-tetrahydronaphthalen-2-yl]-6-methylthieno[2,3-b]pyridine-2-carboxamide] cannot be ordered by IC50: greater than 2000 nM for the first, greater than 2000 nM for the second.

CO[C@H]1CN(c2cc(F)c3c(c2)CC[C@@H](NC(=O)c2sc4nc(C)ccc4c2N)C3)C[C@@H]1N [Example 137, 3-amino-N-[(2R)-6-[(3S,4S)-3-amino-4-methoxypyrrolidin-1-yl]-8-fluoro-1,2,3,4-tetrahydronaphthalen-2-yl]-6-methylthieno[2,3-b]pyridine-2-carboxamide] and CCn1ccc2cc(C(=O)N[C@H]3CCc4cc(N5C[C@H](OC)[C@@H](N)C5)cc(F)c4C3)nnc21 [Example 138, N-[(2S)-6-[(3S,4S)-3-amino-4-methoxypyrrolidin-1-yl]-8-fluoro-1,2,3,4-tetrahydronaphthalen-2-yl]-7-ethyl-7H-pyrrolo[2,3-c]pyridazine-3-carboxamide] cannot be ordered by IC50: greater than 2000 nM for the first, greater than 2000 nM for the second.

Work on CCn1ccc2cc(C(=O)N[C@@H]3CCc4cc(N5C[C@H](OC)[C@@H](N)C5)cc(F)c4C3)nnc21 [Example 139, N-[(2R)-6-[(3S,4S)-3-amino-4-methoxypyrrolidin-1-yl]-8-fluoro-1,2,3,4-tetrahydronaphthalen-2-yl]-7-ethyl-7H-pyrrolo[2,3-c]pyridazine-3-carboxamide] yielded an IC50 greater than 2000 nM.
